Molecular target: T1, amyloid β peptide (Aβ42) (Homo sapiens, UniProt P05067)
T1 construct: gene APP; Aβ42 peptide
Assay: biochemical

T1 sequence (P05067 672-713 limits assumed): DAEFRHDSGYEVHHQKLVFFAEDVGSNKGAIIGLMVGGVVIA

C[C@@H]1O[C@@H](OC[C@H]2O[C@@H](Oc3c(-c4ccc(O)c(O)c4)oc4cc(O)cc(O)c4c3=O)[C@H](O)[C@@H](O)[C@@H]2O)[C@H](O)[C@H](O)[C@H]1O [compound 1, quercetin 3-O-β-D-rutinoside]
IC50: 33 ± 4.84 µM

C[C@@H]1O[C@@H](Oc2c(-c3ccc(O)c(O)c3)oc3cc(O)cc(O)c3c2=O)[C@H](O[C@@H]2O[C@H](CO)[C@@H](O)[C@H](O)[C@H]2O)[C@H](O)[C@H]1O [compound 2, quercetin 3-O-α-L-(β-D-glucopyranosyl)-(1,2)-rhamnopyranoside]
IC50: 67.1 ± 11.7 µM

C[C@@H]1O[C@@H](Oc2c(-c3ccc(O)c(O)c3)oc3cc(O)cc(O)c3c2=O)[C@H](O[C@@H]2O[C@H](COC(=O)/C=C/c3ccc(O)cc3)[C@@H](O)[C@H](O)[C@H]2O)[C@H](O)[C@H]1O [compound 6, quercetin 3-O-α-(6′′′-p-coumaroylglucopyranosyl-β-1,2-rhamnopyranoside)]
IC50: 32.6 ± 4.83 µM

From article PMC6271849, “Quantitative Analysis of the Flavonoid Glycosides and Terpene Trilactones in the Extract of Ginkgo biloba and Evaluation of Their Inhibitory Activity towards Fibril Formation of β-Amyloid Peptide” (Molecules, 2014)
